Data on 3 compounds can be found in patent US20050049241A1, “Pyridyl piperazinyl ureas” (priority 2003, published 2005).

One experiment deals with guinea pig pain models. Particulars: guinea pig models of inflammatory and neuropathic pain; cited from earlier work.
Another experiment relates to guinea pigs. The following applies: cough induced by capsaicin and citric acid; cited from earlier work.
The target in experiment [1] is T1, VR1 (Homo sapiens, UniProt Q8NER1). Description: [3H] Resiniferatoxin binding assay on cell membranes. Also on record: expressed in transfected cells; inferred to be hVR1/HEK293. Particulars: [3H] RTX displacement, 37° C. 60 min.
Experimental: Resiniferatoxin Binding Assay
Cell membranes were prepared by washing cells with Hank's Balanced Salt Solution. Cells were dissociated with cell dissociation buffer (Sigma), and then centrifuged at 1000×g for 5 min. Cell pellets were homogenized in cold 20 mM HEPES buffer, pH 7.4, containing 5.8 mM NaCl, 320 mM sucrose, 2 mM MgCl2, 0.75 mM CaCl2 and 5 mM KCl and centrifuged at 1000×g for 15 min. The resultant supernatant was then centrifuged at 4000×g for 15 min. The pellet membranes were stored at −80° C. […] Briefly, about 120 μg protein/mL membranes were incubated with the indicated concentration of [^3H] RTX (New England Nuclear) in 0.5 mL of the HEPES buffer (pH 7.4) containing 0.25 mg/mL fat acid free bovine serum albumin at 37° C. for 60 min and then the reaction mixture was cooled to 4° C. α1-Acid glycoprotein (0.1 mg) was added to each sample and was incubated at 4° C. for 15 min. The samples were centrifuged at 18,500 g for 15 min. The tip of the microcentrifuge tube containing the pellets was cut off. The non-specific binding was tested in the presence of 200 nM unlabeled RTX. Bound radioactivity was quantified by scintillation counting. Ki is calculated based on a non-linear regression program (PRISM™ software, GraphPad Software, San Diego, Calif.).
Experiment [2] deals with T1, VR1. Description: Functional assay: block of capsaicin-induced Ca2+ influx (FLIPR, hVR1/HEK293 cells). In kind it is cell-based. Details: expressed in transfected cells; host or cells: HEK293. The protocol:
Functional assay: block of capsaicin-induced Ca^2+ influx
The contents of the wells were mixed 3 times (40 μL mix volume) immediately after the additions were made.

For orientation: Ki means the equilibrium dissociation constant of an inhibitor or competing ligand from its target. The term IC50 denotes the point on the concentration scale where inhibition reaches its midpoint.

T1 sequence (Q8NER1 whole entry): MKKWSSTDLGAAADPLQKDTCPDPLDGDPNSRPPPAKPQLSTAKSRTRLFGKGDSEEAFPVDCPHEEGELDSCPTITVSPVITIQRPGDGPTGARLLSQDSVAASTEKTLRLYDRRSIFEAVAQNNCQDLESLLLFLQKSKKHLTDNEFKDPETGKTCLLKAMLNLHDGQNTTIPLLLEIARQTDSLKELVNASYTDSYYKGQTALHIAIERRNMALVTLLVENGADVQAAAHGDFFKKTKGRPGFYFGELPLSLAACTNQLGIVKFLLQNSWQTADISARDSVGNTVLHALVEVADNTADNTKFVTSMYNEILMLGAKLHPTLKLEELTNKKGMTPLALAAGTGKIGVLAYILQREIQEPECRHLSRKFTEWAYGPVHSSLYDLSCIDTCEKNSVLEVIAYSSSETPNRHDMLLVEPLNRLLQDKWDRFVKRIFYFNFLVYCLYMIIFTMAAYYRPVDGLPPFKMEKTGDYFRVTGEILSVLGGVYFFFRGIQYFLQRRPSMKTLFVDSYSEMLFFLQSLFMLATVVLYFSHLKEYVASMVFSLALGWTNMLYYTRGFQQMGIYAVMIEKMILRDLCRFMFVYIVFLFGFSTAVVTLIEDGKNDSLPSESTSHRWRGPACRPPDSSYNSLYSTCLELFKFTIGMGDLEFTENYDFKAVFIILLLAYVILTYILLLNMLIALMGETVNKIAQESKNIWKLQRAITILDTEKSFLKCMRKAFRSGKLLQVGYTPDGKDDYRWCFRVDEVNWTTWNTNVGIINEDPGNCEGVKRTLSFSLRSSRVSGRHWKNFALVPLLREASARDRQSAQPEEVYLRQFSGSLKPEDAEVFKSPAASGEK

Regarding `Oc1cc2c(cc1O)CN(C(=S)NCCc1ccc(Cl)cc1)CCC2` [Capsazepine], the “reversal of mechanical hyperalgesia” value in the experiment with guinea pig pain models was “reverses mechanical hyperalgesia”. The inhibition of cough entry in the experiment with guinea pigs was “inhibits cough induced by capsaicin and citric acid”.
For `O=C(Nc1ccc(C(F)(F)F)cn1)N1CCN(c2ncccc2Cl)CC1` [Comparative A, 4-(3-chloro-pyridin-2-yl)-piperazine-1-carboxylic acid (5-trifluoromethyl-pyridin-2-yl)-amide], the Ki on VR1 [1] worked out at 1020 nM. In addition, at VR1 [2] (block of Ca2+ influx induced by 15 nM capsaicin, hVR1/HEK293, 3 and 60 min incubation data combined), the IC50 is 120 nM.
Regarding `COc1cc(CNC(=O)CCCC/C=C/C(C)C)ccc1O` [capsaicin], on VR1 [2] (agonist, human recombinant VR1 in hVR1/HEK293), the “capsaicin concentration at ~EC80” value is given as about 15 nM.
